Assays:
Type in all cases: in vivo
Apera spica-venti. = assay: Test Example 4: herbicidal effect by application to foliage (diluvial soil, plastic box); conditions: Application herbicide amount 320 g/ha
How it was run: (§1)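 Seeds sown in sterilized diluvial soil, covered ~1.5 cm, grown 14 days in greenhouse at 25° C. to 30° C. Emulsion formulation diluted in water to set rate (g/ha) and sprayed onto stems and leaves. Effect scored visually 3 weeks later on 0–5 scale (5 = ≥90% herbicidal ratio, 0 = ≤5%).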

Setaria viridis = assay: as above; conditions: Application herbicide amount 320 g/ha
How it was run: as §1

Avena fatua = assay: as above; conditions: Application herbicide amount 320 g/ha
How it was run: as §1

Digitaria ciliaris = assay: as above; conditions: Application herbicide amount 320 g/ha
How it was run: as §1

Abutilon theophrasti = assay: as above; conditions: Application herbicide amount 320 g/ha
How it was run: as §1

Veronica persica = assay: as above; conditions: Application herbicide amount 320 g/ha
How it was run: as §1

Lolium multiflorum Lam. = assay: as above; conditions: Application herbicide amount 320 g/ha
How it was run: as §1

Galium spurium = assay: as above; conditions: Application herbicide amount 320 g/ha
How it was run: as §1

Alopecurus myosuroides = assay: as above; conditions: Application herbicide amount 320 g/ha
How it was run: as §1

[1] = test system: directly sowed Oryza sativa; assay: Test Example 3: effect on crop by application to foliage (Wagner pot, water depth 0.1-0.5 cm); conditions: Nineteenth Table; application to foliage; application herbicide amount 320 g/ha
How it was run: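 Three weeks after spraying, each species was graded 0–5 for herbicidal ratio, 5 being 90% or more. Application: water-diluted emulsifiable concentrate at a fixed g/ha to foliage of 14-day-old greenhouse (25–30 °C) plants in alluvial soil.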

SMILES | L (Apera spica-venti.) | G (Setaria viridis) | I (Avena fatua) | F (Digitaria ciliaris) | M (Abutilon theophrasti) | R (Veronica persica) | K (Lolium multiflorum Lam.) | Q (Galium spurium) | J (Alopecurus myosuroides) | b (effect on crop grade) [1]
Cc1nnc(NC(=O)c2ccc(C(F)(F)F)n3c(-c4cncs4)nnc23)o1 [1-058] | 2 (Herbicidal ratio of 20% or more and less than 40%) | 5 (Herbicidal ratio of 90% or more (almost completely withered)) | 3 (Herbicidal ratio of 40% or more and less than 70%) | 5 (Herbicidal ratio of 90% or more (almost completely withered)) | 5 (Herbicidal ratio of 90% or more (almost completely withered)) | 5 (Herbicidal ratio of 90% or more (almost completely withered)) | 3 (Herbicidal ratio of 40% or more and less than 70%) | 2 (Herbicidal ratio of 20% or more and less than 40%) | 3 (Herbicidal ratio of 40% or more and less than 70%) | 4 (Herbicidal ratio of 70% or more and less than 90%)
C#CCSc1nnc2c(C(=O)Nc3nnc(C)o3)ccc(C(F)(F)F)n12 [1-065] | 0 (Herbicidal ratio of 5% or less (almost no effect)) | 1 (Herbicidal ratio of 5% or more and less than 20%) | 1 (Herbicidal ratio of 5% or more and less than 20%) | 4 (Herbicidal ratio of 70% or more and less than 90%) | 3 (Herbicidal ratio of 40% or more and less than 70%) | 3 (Herbicidal ratio of 40% or more and less than 70%) | 0 (Herbicidal ratio of 5% or less (almost no effect)) | 0 (Herbicidal ratio of 5% or less (almost no effect)) | 0 (Herbicidal ratio of 5% or less (almost no effect)) | 0 (Herbicidal ratio of 5% or less (almost no effect))
Cc1nnc(NC(=O)c2ccc(C(F)(F)C(F)(F)F)n3c(C(C)C)nnc23)o1 [1-066] | 0 (Herbicidal ratio of 5% or less (almost no effect)) | 1 (Herbicidal ratio of 5% or more and less than 20%) | 1 (Herbicidal ratio of 5% or more and less than 20%) | 3 (Herbicidal ratio of 40% or more and less than 70%) | 3 (Herbicidal ratio of 40% or more and less than 70%) | 4 (Herbicidal ratio of 70% or more and less than 90%) | 0 (Herbicidal ratio of 5% or less (almost no effect)) | 1 (Herbicidal ratio of 5% or more and less than 20%) | 0 (Herbicidal ratio of 5% or less (almost no effect)) | 0 (Herbicidal ratio of 5% or less (almost no effect))
Cc1nnc(NC(=O)c2ccc(C(F)(F)F)n3c(CO)nnc23)o1 [1-067] | 0 (Herbicidal ratio of 5% or less (almost no effect)) | 4 (Herbicidal ratio of 70% or more and less than 90%) | 1 (Herbicidal ratio of 5% or more and less than 20%) | 5 (Herbicidal ratio of 90% or more (almost completely withered)) | 4 (Herbicidal ratio of 70% or more and less than 90%) | 4 (Herbicidal ratio of 70% or more and less than 90%) | 0 (Herbicidal ratio of 5% or less (almost no effect)) | 3 (Herbicidal ratio of 40% or more and less than 70%) | 0 (Herbicidal ratio of 5% or less (almost no effect)) | 2 (Herbicidal ratio of 20% or more and less than 40%)
Cc1nnc(NC(=O)c2ccc(C(F)(F)F)n3c(C=O)nnc23)o1 [1-068] | 1 (Herbicidal ratio of 5% or more and less than 20%) | 4 (Herbicidal ratio of 70% or more and less than 90%) | 1 (Herbicidal ratio of 5% or more and less than 20%) | 5 (Herbicidal ratio of 90% or more (almost completely withered)) | 3 (Herbicidal ratio of 40% or more and less than 70%) | 4 (Herbicidal ratio of 70% or more and less than 90%) | 1 (Herbicidal ratio of 5% or more and less than 20%) | 3 (Herbicidal ratio of 40% or more and less than 70%) | 1 (Herbicidal ratio of 5% or more and less than 20%) | 1 (Herbicidal ratio of 5% or more and less than 20%)
Cc1nnc(NC(=O)c2ccc(C(F)(F)F)n3c(-c4cc(Cl)cc(Cl)c4)nnc23)o1 [1-071] | 0 (Herbicidal ratio of 5% or less (almost no effect)) | 0 (Herbicidal ratio of 5% or less (almost no effect)) | 0 (Herbicidal ratio of 5% or less (almost no effect)) | 1 (Herbicidal ratio of 5% or more and less than 20%) | 3 (Herbicidal ratio of 40% or more and less than 70%) | 3 (Herbicidal ratio of 40% or more and less than 70%) | 0 (Herbicidal ratio of 5% or less (almost no effect)) | 1 (Herbicidal ratio of 5% or more and less than 20%) | 0 (Herbicidal ratio of 5% or less (almost no effect)) | 0 (Herbicidal ratio of 5% or less (almost no effect))
Cc1nnc(NC(=O)c2cc(C)c(C(F)(F)F)n3c(C(C)C)nnc23)o1 [1-075] | 0 (Herbicidal ratio of 5% or less (almost no effect)) | 1 (Herbicidal ratio of 5% or more and less than 20%) | 0 (Herbicidal ratio of 5% or less (almost no effect)) | 3 (Herbicidal ratio of 40% or more and less than 70%) | 1 (Herbicidal ratio of 5% or more and less than 20%) | 3 (Herbicidal ratio of 40% or more and less than 70%) | 0 (Herbicidal ratio of 5% or less (almost no effect)) | 0 (Herbicidal ratio of 5% or less (almost no effect)) | 0 (Herbicidal ratio of 5% or less (almost no effect)) | 1 (Herbicidal ratio of 5% or more and less than 20%)
Cc1nnc(NC(=O)c2ccc(C(F)(F)F)n3c(N(C)C)nnc23)o1 [1-076] | 4 (Herbicidal ratio of 70% or more and less than 90%) | 5 (Herbicidal ratio of 90% or more (almost completely withered)) | 3 (Herbicidal ratio of 40% or more and less than 70%) | 5 (Herbicidal ratio of 90% or more (almost completely withered)) | 4 (Herbicidal ratio of 70% or more and less than 90%) | 4 (Herbicidal ratio of 70% or more and less than 90%) | 3 (Herbicidal ratio of 40% or more and less than 70%) | 2 (Herbicidal ratio of 20% or more and less than 40%) | 3 (Herbicidal ratio of 40% or more and less than 70%) | 3 (Herbicidal ratio of 40% or more and less than 70%)
C#CC[S+]([O-])c1nnc2c(C(=O)Nc3nnc(C)o3)ccc(C(F)(F)F)n12 (centres unmarked) [1-077] | 0 (Herbicidal ratio of 5% or less (almost no effect)) | 2 (Herbicidal ratio of 20% or more and less than 40%) | 0 (Herbicidal ratio of 5% or less (almost no effect)) | 4 (Herbicidal ratio of 70% or more and less than 90%) | 2 (Herbicidal ratio of 20% or more and less than 40%) | 3 (Herbicidal ratio of 40% or more and less than 70%) | 0 (Herbicidal ratio of 5% or less (almost no effect)) | 1 (Herbicidal ratio of 5% or more and less than 20%) | 0 (Herbicidal ratio of 5% or less (almost no effect)) | 0 (Herbicidal ratio of 5% or less (almost no effect))
Cc1nnc(NC(=O)c2ccc(C(F)(F)F)n3c(Nc4ccccc4)nnc23)o1 [1-082] | 1 (Herbicidal ratio of 5% or more and less than 20%) | 3 (Herbicidal ratio of 40% or more and less than 70%) | 0 (Herbicidal ratio of 5% or less (almost no effect)) | 4 (Herbicidal ratio of 70% or more and less than 90%) | 4 (Herbicidal ratio of 70% or more and less than 90%) | 4 (Herbicidal ratio of 70% or more and less than 90%) | 1 (Herbicidal ratio of 5% or more and less than 20%) | 0 (Herbicidal ratio of 5% or less (almost no effect)) | 0 (Herbicidal ratio of 5% or less (almost no effect)) | 0 (Herbicidal ratio of 5% or less (almost no effect))
CSCCc1nnc2c(C(=O)Nc3nnc(C)o3)ccc(C(F)(F)F)n12 [1-083] | 0 (Herbicidal ratio of 5% or less (almost no effect)) | 5 (Herbicidal ratio of 90% or more (almost completely withered)) | 3 (Herbicidal ratio of 40% or more and less than 70%) | 5 (Herbicidal ratio of 90% or more (almost completely withered)) | 5 (Herbicidal ratio of 90% or more (almost completely withered)) | 4 (Herbicidal ratio of 70% or more and less than 90%) | 1 (Herbicidal ratio of 5% or more and less than 20%) | 4 (Herbicidal ratio of 70% or more and less than 90%) | 0 (Herbicidal ratio of 5% or less (almost no effect)) | 2 (Herbicidal ratio of 20% or more and less than 40%)

Reference: US9708314B2, “Heterocyclic amide compound” (NISSAN CHEMICAL INDUSTRIES, LTD., priority 2013, dated 2017)
